The values that follow are results of earlier work, collected in patent US20170165232A1, “THREE-PHASE CONTROLLED-RELEASE TABLET COMPRISING MELATONIN AND PROCESS OF PREPARATION” (Ambros Pharma S.R.L., priority 2010, published 2017).

The conditions of this data set: in humans.

On to `COc1ccc2[nH]cc(CCNC(C)=O)c2c1` [melatonin, N-acetyl-5-methoxytryptamine], for which the half-life entry is “about 40 minutes”.
